Laboratory results reported in ChEMBL document CHEMBL1121841, “Toxicity quantitative structure--activity relationships of colchicines” (J Med Chem, 1981).

How the values were obtained:
[1] = test system: Mus musculus; assay: Percent increase in life-span against in vivo P388 murine leukemia at a dose 0.39 mg/kg) in trail 1; assay type: functional
[2] = test system: Mus musculus; assay: Percent increase in life-span against in vivo P388 murine leukemia at a dose 0.39 mg/kg in trail 2; assay type: functional
[3] = test system: Mus musculus; assay: Percent increase in life-span against in vivo P388 murine leukemia at a dose 6.25 mg/kg in trail 2; assay type: functional
[4] = physchem; details: octanol/water
Description: Partition coefficient (logP)

[5] = test system: Mus musculus; assay: Percent increase in life-span against in vivo P388 murine leukemia at a dose 3.12 mg/kg in trail 1; assay type: functional
[6] = test system: Mus musculus; assay: Percent increase in life-span against in vivo P388 murine leukemia at a dose 1.56 mg/kg in trail 1; assay type: functional
[7] = test system: Mus musculus; assay: Percent increase in life-span against in vivo P388 murine leukemia at a dose 0.78 mg/kg in trail 2; assay type: functional
[8] = test system: Mus musculus; assay: Percent increase in life-span against in vivo P388 murine leukemia at a dose 6.25 mg/kg in trail 1; assay type: functional
[9] = test system: Mus musculus; assay: Percent increase in life-span against in vivo P388 murine leukemia at a dose 0.78 mg/kg in trail 1; assay type: functional
[10] = test system: Mus musculus; assay: Percent increase in life-span against in vivo P388 murine leukemia at a dose 12.5 mg/kg in trail 2; assay type: functional
[11] = species: Mus musculus; details: in vivo
Description: Logarithm of toxic activity (1/lethal dose) in mice bearing P388 leukemia on chronic regimen (Q 1-9)

[12] = test system: Mus musculus; assay: Percent increase in life-span against in vivo P388 murine leukemia at a dose 1.56 mg/kg in trail 2; assay type: functional
[13] = test system: Mus musculus; assay: Percent increase in life-span against in vivo P388 murine leukemia at a dose 3.12 mg/kg in trail 2; assay type: functional
[14] = Compound was tested for toxicity in non tumored mice; assay type: organism-based; details: mouse, in vivo
[15] = Compound was tested for toxicity in P388 tumored mice; assay type: organism-based; details: mouse, in vivo
[16] = test system: Mus musculus; assay: Percent increase in life-span against in vivo P388 murine leukemia at a dose 0.12 mg/kg in trail 1; assay type: functional
[17] = test system: Mus musculus; assay: Percent increase in life-span against in vivo P388 murine leukemia at a dose 0.5 mg/kg in trail 2; assay type: functional
[18] = test system: Mus musculus; assay: Percent increase in life-span against in vivo P388 murine leukemia at a dose 0.12 mg/kg in trail 2; assay type: functional
[19] = test system: Mus musculus; assay: Percent increase in life-span against in vivo P388 murine leukemia at a dose 0.5 mg/kg in trail 1; assay type: functional
[20] = test system: Mus musculus; assay: Percent increase in life-span against in vivo P388 murine leukemia at a dose 0.06 mg/kg in trail 1; assay type: functional
[21] = test system: Mus musculus; assay: Percent increase in life-span against in vivo P388 murine leukemia at a dose 0.06 mg/kg in trail 2; assay type: functional
[22] = test system: Mus musculus; assay: Percent increase in life-span against in vivo P388 murine leukemia at a dose 0.25 mg/kg in trail 1; assay type: functional
[23] = test system: Mus musculus; assay: Percent increase in life-span against in vivo P388 murine leukemia at a dose 0.25 mg/kg in trail 2; assay type: functional

| Structure (SMILES) | Log 1/LD50 [11] | LD50 [14] [mg/kg] | LD50 [15] [mg/kg] | also measured |
| --- | --- | --- | --- | --- |
| COc1c(C=O)c2c(c(OC)c1OC)-c1ccc(OC)c(=O)cc1[C@@H](NC(C)=O)CC2 | 4.14 |  |  | ILS at 0.39 mg/kg [1]: 51%; ILS at 0.39 mg/kg [2]: 49%; ILS at 6.25 mg/kg [3]: 105%; logP [4]: 5.92; ILS at 3.12 mg/kg [5]: 94%; ILS at 1.56 mg/kg [6]: 60%; ILS at 0.78 mg/kg [7]: 49%; ILS at 6.25 mg/kg [8]: 105%; ILS at 0.78 mg/kg [9]: 54%; ILS at 12.5 mg/kg [10]: 2%; ILS at 1.56 mg/kg [12]: 75%; ILS at 3.12 mg/kg [13]: 80% |
| COC1=C2C(=CC(=O)C1OC)CC[C@H](NC(C)=O)c1cc(=O)c(OC)ccc12 (some centres undefined) | 5.82 |  |  | logP [4]: 0.93 |
| COc1c(C#N)c2c(c(OC)c1OC)-c1ccc(OC)c(=O)cc1[C@@H](NC(C)=O)CC2 | 3.8 |  |  | logP [4]: 4.46 |
| CCOC(=O)N[C@H]1CCc2cc(OC)c(OC)c(OC)c2-c2ccc(SC)c(=O)cc21 | 4.19 |  |  |  |
| COc1cc2c(c(OC)c1OC)-c1ccc(SC)c(=O)cc1[C@@H](NC(=O)C(F)(F)F)CC2 | 5.51 | 3.5 | 1.4 |  |
| COc1cc2c(c(OC)c1OC)-c1ccc(OC)c(=O)cc1[C@@H](NC(=O)c1ccccc1)CC2 | 4.24 |  |  |  |
| COc1cc2c(c(OC)c1OC)-c1ccc(SC)c(=O)cc1[C@@H](N)CC2 | 3.75 | 177 | 69 |  |
| COc1cc2c(c(OC)c1OC)-c1ccc(SC)c(=O)cc1[C@@H](NC(=O)NCCCl)CC2 | 4.93 |  |  |  |
| COc1cc2c(c(OC)c1OC)-c1ccc(OC)c(=O)cc1[C@@H](NC(=O)CCl)CC2 | 5.54 |  |  |  |
| COc1cc2c(c(OC)c1OC)-c1ccc(OC)c(=O)cc1[C@@H](NC(=O)c1ccc([N+](=O)[O-])cc1)CC2 | 4.41 | 25 | 20 |  |
| COc1cc2c(c(OC)c1OC)-c1ccc(SC)c(=O)cc1[C@@H](NO[C@H]1O[C@@H](CO)[C@H](O)[C@@H](O)[C@@H]1O)CC2 | 3.71 |  |  | logP [4]: 1.25 |
| COc1cc2c(c(OC)c1OC)-c1ccc(SC)c(=O)cc1[C@@H](NO[C@H]1O[C@@H](COC(C)=O)[C@H](OC(C)=O)[C@@H](OC(C)=O)[C@@H]1OC(C)=O)CC2 | 3.81 |  |  | logP [4]: 4.61 |
| COc1cc2c(c(OC)c1OC)-c1ccc(SC)c(=O)cc1[C@@H](NO[C@H]1OC[C@@H](O)[C@@H](O)[C@@H]1O)CC2 | 3.98 | 251 | 102 | logP [4]: 1.4 |
| COc1cc2c(c(OC)c1OC)-c1ccc(SC)c(=O)cc1[C@@H](NC(=O)CCl)CC2 | 5.65 |  |  |  |
| COc1c(CO)c2c(c(OC)c1OC)-c1ccc(OC)c(=O)cc1[C@@H](NC(C)=O)CC2 | 3.4 |  |  | logP [4]: 4.58 |
| COc1cc2c(c(OC)c1OC)-c1ccc(SC)c(=O)cc1[C@@H](NC(=O)CO)CC2 | 5.66 |  |  |  |
| COc1cc2c(c(OC)c1OC)-c1ccc(OC)c(=O)cc1[C@@H](NC(=O)C(F)(F)F)CC2 | 5.73 | 1.9 | 0.8 |  |
| COC(=O)C(N)CCCC/N=c1\ccc2c(cc1O)[C@@H](NC(C)=O)CCc1cc(OC)c(OC)c(OC)c1-2 (some centres undefined) | 3 |  |  |  |
| COc1cc2c(c(OC)c1OC)-c1ccc(OC)c(=O)cc1[C@@H](NC=O)CC2 | 5.16 | 5 | 2.7 |  |
| COc1cc2c(c(OC)c1OC)-c1cc/c(=N\Cc3ccccc3)c(O)cc1[C@@H](NC(C)=O)CC2 | 4.28 | 41 | 25.1 |  |
| COc1cc2c(c(OC)c1OC)-c1ccc(OC)c(=O)cc1[C@@H](NC(=O)CF)CC2 | 5.69 |  |  |  |
| COc1cc2c(c(OC)c1OC)-c1ccc(SCc3ccccc3)c(=O)cc1[C@@H](NC(C)=O)CC2 | 4.22 |  |  |  |
| COc1cc2c(c(OC)c1OC)-c1ccc(OC)c(=O)cc1[C@@H](N(C)C)CC2 | 4.21 |  |  |  |
| CNc1ccc2c(cc1=O)[C@@H](NC(C)=O)CCc1cc(OC)c(OC)c(OC)c1-2 | 5.72 | 1.4 | 0.8 |  |
| COc1cc2c(c(OC)c1OC)-c1ccc(OC)c(=O)cc1[C@@H](NC(C)=O)CC2 [COLCHICINE] | 5.46 | 1.6 | 1.4 | ILS at 0.12 mg/kg [16]: 33%; ILS at 0.5 mg/kg [17]: 89%; ILS at 0.12 mg/kg [18]: 40%; ILS at 0.5 mg/kg [19]: 78%; ILS at 0.06 mg/kg [20]: 27%; ILS at 0.06 mg/kg [21]: 24%; ILS at 0.25 mg/kg [22]: 46%; ILS at 0.25 mg/kg [23]: 58% |
| COc1cc2c(c(OC)c1OC)-c1ccc(OC)c(=O)cc1[C@@H](N)CC2 [DEACETYLCOLCHICINE] | 3.71 |  |  |  |
| CN[C@H]1CCc2cc(OC)c(OC)c(OC)c2-c2ccc(OC)c(=O)cc21 [DEMECOLCINE] | 3.63 |  |  |  |
| COc1cc2c(c(OC)c1OC)-c1ccc(SC)c(=O)cc1[C@@H](NC(C)=O)CC2 [THIOCOLCHICINE] | 5.62 | 1 | 1 |  |
